{
  "source": "patent EP0504184B1",
  "about": "“ACTIVE AGENT AGAINST RETROVIRUS GROUP VIRUSES, COMPOSITIONS CONTAINING SAME AND THEIR USE” (PREVISAN S.A., priority 1989, dated 1991)",
  "test_system": "virus VIH-1 dans des cellules Molt-3 B",
  "experiment": "p24 antigen in culture supernatants of treated Molt-3 B cells continuously producing HIV (optical density)",
  "assay_type": "cell-based",
  "conditions": "for Mesure du pouvoir infectieux des virus VIH-1 dans des cellules Molt-3 B (densité optique): p24 in supernatant",
  "protocol": "Des cellules Molt-3 B, continuellement productrices de virus VIH, ont été traitées par de la chloroazodine à des concentrations de 1/1500 et 1/3000 pendant des périodes de 1 minute, 10 minutes et 30 minutes.\nLes antigènes p 24 exprimes dans les surnageants de culture ont été évalués après 24 h., 48 h., 72 h. et 96 h.\nPour mesurer cet effet en contournant la toxicité du produit pour les cellules infectées, on a choisi de prendre un nombre cellulaire extraordinairement élevé de manière à conserver un nombre très faible, mais suffisant, de cellules vivantes après 96 h. Tableau 5",
  "data": [
    {"smiles": "NC(N=NC(N)=NCl)=NCl", "note": "[chloroazodine, N, N'-dichloroazodicarbonamidine]", "values": [
      {"measurement": "Mesure du pouvoir infectieux des virus VIH-1 dans des cellules Molt-3 B (densité optique)", "setting": "chloroazodine 1/1500, treatment 1 min, 24 h. after treatment", "result": "0,175"},
      {"measurement": "Mesure du pouvoir infectieux des virus VIH-1 dans des cellules Molt-3 B (densité optique)", "setting": "chloroazodine 1/1500, treatment 1 min, 48 h. after treatment", "result": "0,175"},
      {"measurement": "Mesure du pouvoir infectieux des virus VIH-1 dans des cellules Molt-3 B (densité optique)", "setting": "chloroazodine 1/1500, treatment 1 min, 72 h. after treatment", "result": "0,167"},
      {"measurement": "Mesure du pouvoir infectieux des virus VIH-1 dans des cellules Molt-3 B (densité optique)", "setting": "chloroazodine 1/1500, treatment 10 min, 24 h. after treatment", "result": "0,182"},
      {"measurement": "Mesure du pouvoir infectieux des virus VIH-1 dans des cellules Molt-3 B (densité optique)", "setting": "chloroazodine 1/1500, treatment 10 min, 48 h. after treatment", "result": "0,181"},
      {"measurement": "Mesure du pouvoir infectieux des virus VIH-1 dans des cellules Molt-3 B (densité optique)", "setting": "chloroazodine 1/1500, treatment 10 min, 72 h. after treatment", "result": "0,145"},
      {"measurement": "Mesure du pouvoir infectieux des virus VIH-1 dans des cellules Molt-3 B (densité optique)", "setting": "chloroazodine 1/1500, treatment 30 min, 24 h. after treatment", "result": "0,194"},
      {"measurement": "Mesure du pouvoir infectieux des virus VIH-1 dans des cellules Molt-3 B (densité optique)", "setting": "chloroazodine 1/1500, treatment 30 min, 48 h. after treatment", "result": "0,155"},
      {"measurement": "Mesure du pouvoir infectieux des virus VIH-1 dans des cellules Molt-3 B (densité optique)", "setting": "chloroazodine 1/1500, treatment 30 min, 72 h. after treatment", "result": "0,173"},
      {"measurement": "Mesure du pouvoir infectieux des virus VIH-1 dans des cellules Molt-3 B (densité optique)", "setting": "chloroazodine 1/3000, treatment 1 min, 24 h. after treatment", "result": "0,247"},
      {"measurement": "Mesure du pouvoir infectieux des virus VIH-1 dans des cellules Molt-3 B (densité optique)", "setting": "chloroazodine 1/3000, treatment 1 min, 48 h. after treatment", "result": "0,154"},
      {"measurement": "Mesure du pouvoir infectieux des virus VIH-1 dans des cellules Molt-3 B (densité optique)", "setting": "chloroazodine 1/3000, treatment 1 min, 72 h. after treatment", "result": "0,170"},
      {"measurement": "Mesure du pouvoir infectieux des virus VIH-1 dans des cellules Molt-3 B (densité optique)", "setting": "chloroazodine 1/3000, treatment 10 min, 24 h. after treatment", "result": "0,180"},
      {"measurement": "Mesure du pouvoir infectieux des virus VIH-1 dans des cellules Molt-3 B (densité optique)", "setting": "chloroazodine 1/3000, treatment 10 min, 48 h. after treatment", "result": "0,176"},
      {"measurement": "Mesure du pouvoir infectieux des virus VIH-1 dans des cellules Molt-3 B (densité optique)", "setting": "chloroazodine 1/3000, treatment 10 min, 72 h. after treatment", "result": "0,152"},
      {"measurement": "Mesure du pouvoir infectieux des virus VIH-1 dans des cellules Molt-3 B (densité optique)", "setting": "chloroazodine 1/3000, treatment 30 min, 24 h. after treatment", "result": "0,211"},
      {"measurement": "Mesure du pouvoir infectieux des virus VIH-1 dans des cellules Molt-3 B (densité optique)", "setting": "chloroazodine 1/3000, treatment 30 min, 48 h. after treatment", "result": "0,162"},
      {"measurement": "Mesure du pouvoir infectieux des virus VIH-1 dans des cellules Molt-3 B (densité optique)", "setting": "chloroazodine 1/3000, treatment 30 min, 72 h. after treatment", "result": "0,176"},
      {"measurement": "production de VIH par des cellules infectées", "setting": "conclusion of example 7, Molt-3 B cells, chloroazodine 1/1500 and 1/3000", "result": "capable d'empêcher la production de VIH par des cellules infectées"}
    ]}
  ]
}
